Reference: patent US20150272979A1, “COMBINATION THERAPEUTIC COMPOSITION” (Hoffman La-Roche Inc., priority 2012, published 2015)

Assays:
[1] = tested on: CYP isozymes including 3A4, 2C19, 1A2, 2D6, and 2C9; assay: Cytochrome P450 phenotyping using chemical inhibitors; format: in vitro ADME; settings: early preclinical studies
Excerpt: (§1) Therefore, a cytochrome P450 monooxygenase inhibitor in an amount effective to inhibit metabolism of the protease inhibitor could increase the bioavailability of Compound 2 compared to administration in the absence of the CYP inhibitor.

CYP3A4 = CYP3A4 (Homo sapiens, UniProt P08684); assay: Metabolism by recombinant CYPs; format: in vitro ADME
Chain of CYP3A4 (P08684 whole entry): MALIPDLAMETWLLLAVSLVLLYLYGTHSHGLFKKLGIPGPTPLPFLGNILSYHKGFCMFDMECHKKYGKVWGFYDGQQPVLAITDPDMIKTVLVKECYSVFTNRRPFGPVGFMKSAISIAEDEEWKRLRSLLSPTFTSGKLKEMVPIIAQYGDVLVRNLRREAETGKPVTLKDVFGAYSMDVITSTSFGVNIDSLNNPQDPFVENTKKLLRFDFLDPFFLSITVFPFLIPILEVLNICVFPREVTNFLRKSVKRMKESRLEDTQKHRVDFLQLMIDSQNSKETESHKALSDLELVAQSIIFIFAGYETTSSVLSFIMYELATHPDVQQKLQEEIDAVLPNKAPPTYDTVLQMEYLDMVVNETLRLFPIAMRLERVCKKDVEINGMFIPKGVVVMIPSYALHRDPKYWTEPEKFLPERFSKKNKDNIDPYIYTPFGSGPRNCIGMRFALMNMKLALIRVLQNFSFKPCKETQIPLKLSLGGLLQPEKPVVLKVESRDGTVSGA
Excerpt: as §1

HCV replication = settings: general statement; cited from earlier work

| SMILES | CYP isozymes participating in metabolism [1] | Metabolism by recombinant CYPs (CYP3A4) | Inhibition of HCV replication (HCV replication) |
| --- | --- | --- | --- |
| CC(C)(C)OC(=O)N[C@H]1CCCCC/C=C\[C@@H]2C[C@@]2(C(=O)NS(=O)(=O)C2CC2)NC(=O)[C@@H]2C[C@@H](OC(=O)N3Cc4cccc(F)c4C3)CN2C1=O [Compound 2, (1S,4R,6S,14S,18R)-4-Fluoro-1,3-dihydro-isoindole-2-carboxylic acid 14-tert-butoxycarbonylamino-4-cyclopropanesulfonylaminocarbonyl-2,15-dioxo-3,16-diaza-tricyclo[14.3.0.04,6]nonadec-7-en-18-yl ester] | multiple CYP isozymes including 3A4, 2C19, 1A2, 2D6, and 2C9 participate in the metabolism | only CYP3A4 metabolized Compound 2 to an extent that could influence the pharmacokinetics | effective in inhibiting HCV replication |
| CS(=O)(=O)Nc1ccc2c(c1)S(=O)(=O)N=C(C1=C(O)C3C([C@@H]4CC[C@H]3C4)N(Cc3ccc(F)cc3)C1=O)N2 (stereo partly shown) [Compound 3] | – | – | effective in inhibiting HCV replication |
